Results reported in patent US12428405B2, “Chalcone-based chemotherapeutic compound for triple negative breast cancer” (QATAR UNIVERSITY, priority 2019, dated 2025).
“Also recorded” adds a separate entry of the source.

How the values were obtained:
MDA-MB-468 = assay: PE Annexin V apoptosis assay (flow cytometry); format: cell-based
Description: PE Annexin V apoptosis Detection Kit (BD Pharmingen, USA) was used to quantify cell apoptosis in treated versus untreated MDA-MB-468 cells at 24 and 48 hours post treatment. Briefly, cells were seeded at a density of 300,000 cells/well in 6-well plates. Second day, media was replaced with fresh media and treatment was added. Cells were harvested following treatment and each group of cells was stained with PE Annexin V and 7-AAD Annexin V as per the protocol specified on the kit. Samples were then analyzed by Accuri C6 flow cytometer (BD Biosciences, USA). The percentages of cells (viable cells, apoptotic cells, necrotic cells and dead cells) were quantified in each of the four quadrants. Data and figures were processed using the FlowJo V10 software.

tubulin = assay: Cell free tubulin polymerization assay; format: biochemical; conditions: N=1×2, colchicine and paclitaxel as controls
Description: The effect of compound 14 on tubulin polymerization dynamics was assessed using the cell free Cytoskeleton tubulin polymerization assay kit, Version 8.3 (Cytoskeleton, Inc., USA). The experiment was conducted based on the manufacturer's recommendations. colchicine was used as a depolymerizing control while paclitaxel was used as a polymerizing control. Briefly, stock solutions of 10 μM of the compounds and controls were prepared in general tubulin buffer. Then, 10 μl of each solution was added in duplicates in half area 96-well plate prewarmed at 37° C. It was subsequently incubated at 37° C. for 2 minutes. Tubulin solution was prepared and 100 μl of it was added to each of the prewarmed wells of the compounds. The plate was immediately placed at a plate reader set up at kinetic modes and 37° C. temperature. Recording was conducted every minute for 60 minutes at 340 nm Absorbance.

**Q.** With `COc1cccc(C(=O)/C=C/c2ccc(N(CCCl)CCCl)cc2)c1` [Compound 14, (E)-3-(4-(Bis(2-chloroethyl)amino)phenyl)-1-(3-methoxyphenyl) prop-2-en-1-one] as the compound, how does the “early and late apoptosis (in words)” value (MDA-MB-468; 24 and 48 hours) read?
**A.** Its value is “time dependent”.

**Q.** What about the rate of apoptosis (MDA-MB-468; 48 hours, N=1) of the same compound?
**A.** Its rate of apoptosis is 28.00%.

**Q.** What about the “effect on tubulin polymerization (in words)” value (tubulin) of the same compound?
**A.** The value was “inhibited with an effect comparable to colchicine; also recorded: comparable to tubulin desterilizing agent, colchicine”.
